Source: patent publication US9580449B2, “Compositions and methods for the production of pyrimidine and pyridine compounds with BTK inhibitory activity” (Merck Patent GmbH, priority 2011, dated 2017)

Experiments:
PBMC = assay: Time Dependent PBMC IC50 assay; type: cell-based
Description: Compounds described by embodiments of the present invention were assayed using a time dependent PMBC assay.

full-length human BTK = full-length human BTK (Homo sapiens (Human), UniProt Q06187); assay: BTK IC50 enzyme assay (microfluidic off-chip mobility shift kinase assay); type: biochemical; details: incubated for 90 min. at 27 C; read-out: Time Dependent BTK Enzyme Assay IC50
Procedure, shortened: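 Off-chip microfluidic mobility shift assay on full-length human BTK; substrate-to-product conversion measured by charge/mass separation of phosphorylated peptide after reaction stop.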

Chain of full-length human BTK (Q06187 whole entry): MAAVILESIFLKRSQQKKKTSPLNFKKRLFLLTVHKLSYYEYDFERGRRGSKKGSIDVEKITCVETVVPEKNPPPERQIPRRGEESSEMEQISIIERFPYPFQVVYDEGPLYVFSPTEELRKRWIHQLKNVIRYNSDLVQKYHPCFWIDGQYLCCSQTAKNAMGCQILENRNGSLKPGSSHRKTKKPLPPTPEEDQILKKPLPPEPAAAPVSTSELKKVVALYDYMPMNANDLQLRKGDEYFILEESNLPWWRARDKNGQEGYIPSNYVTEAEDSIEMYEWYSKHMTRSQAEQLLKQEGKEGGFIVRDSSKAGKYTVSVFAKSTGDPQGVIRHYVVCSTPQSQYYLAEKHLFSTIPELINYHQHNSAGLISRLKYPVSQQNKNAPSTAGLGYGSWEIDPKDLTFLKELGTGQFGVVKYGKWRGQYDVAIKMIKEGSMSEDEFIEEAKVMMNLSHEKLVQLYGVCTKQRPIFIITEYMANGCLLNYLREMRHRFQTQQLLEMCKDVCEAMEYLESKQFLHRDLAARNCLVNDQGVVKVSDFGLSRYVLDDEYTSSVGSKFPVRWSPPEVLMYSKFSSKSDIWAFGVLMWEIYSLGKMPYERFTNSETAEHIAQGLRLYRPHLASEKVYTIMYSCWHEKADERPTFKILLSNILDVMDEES

Row | IC50 (full-length human BTK) [µM] | SMILES | IC50 (PBMC) [µM]
1 |  | C=CC(=O)N1CCC(CNc2ncnc(N)c2-c2ccc(Oc3ccccc3)cc2)CC1 [A250, 1-(4-(((6-amino-5-(4-phenoxyphenyl)pyrimidin-4-yl)amino)methyl)piperidin-1-yl)prop-2-en-1-one] | < 1
2 |  | Nc1ncnc(NCC2CCN(C(=O)CCl)CC2)c1-c1ccc(Oc2ccccc2)cc1 [A45, 1-(4-(((6-amino-5-(4-phenoxyphenyl)pyrimidin-4-yl)amino)methyl)piperidin-1-yl)-2-chloroethanone] | < 1
3 |  | C=CC(=O)N1CC[C@H](COc2ncnc(N)c2-c2ccc(Oc3ccccc3)cc2)C1 [A26, (S)-1-(3-(((6-amino-5-(4-phenoxyphenyl)pyrimidin-4-yl)oxy)methyl)pyrrolidin-1-yl)prop-2-en-1-one] | < 1
4 |  | C=CC(=O)N[C@@H]1CCC[C@H](Nc2ncnc(N)c2-c2ccc(Oc3ccccc3)cc2)C1 (relative stereo) [A51, N-(cis-3-((6-amino-5-(4-phenoxyphenyl)pyrimidin-4-yl)amino)cyclohexyl)acrylamide] | < 1
5 |  | C=CC(=O)Nc1cccc(Oc2ncncc2-c2ccc(Oc3ccccc3)cc2)c1 [A255, N-(3-((5-(4-phenoxyphenyl)pyrimidin-4-yl)oxy)phenyl)acrylamide] | < 1
6 |  | C=CC(=O)N1CCC(CNc2ncnc(N)c2-c2ccc(Oc3ccccc3)cc2)C1 (stereo not drawn) [A262, 1-(3-(((6-amino-5-(4-phenoxyphenyl)pyrimidin-4-yl)amino)methyl)pyrrolidin-1-yl)prop-2-en-1-one] | < 1
7 |  | C=CC(=O)N1CCCC(Nc2ncnc(N)c2-c2ccc(Oc3ccccc3)cc2)C1 (stereo not drawn) [A253, 1-(3-((6-amino-5-(4-phenoxyphenyl)pyrimidin-4-yl)amino)piperidin-1-yl)prop-2-en-1-one] | < 1
8 |  | C=CC(=O)N1CC[C@H](CNc2ncnc(N)c2-c2ccc(Oc3ccccc3)cc2)C1 [A4, (R)-1-(3-(((6-amino-5-(4-phenoxyphenyl)pyrimidin-4-yl)amino)methyl)pyrrolidin-1-yl)prop-2-en-1-one] | < 1
9 | > 1 | C=CC(=O)N1CCC(CNc2nc(C)nc(N)c2-c2ccc(Oc3ccccc3)cc2)CC1 [A36, 1-(4-(((6-amino-2-methyl-5-(4-phenoxyphenyl)pyrimidin-4-yl)amino)methyl)piperidin-1-yl)prop-2-en-1-one] | 
10 | < 0.1 | C=CC(=O)Nc1cccc(Oc2ncnc(N)c2-c2ccc(OCc3ccccc3)cc2)c1 [A249, N-(3-((6-amino-5-(4-(benzyloxy)phenyl)pyrimidin-4-yl)oxy)phenyl)acrylamide] | 
11 | < 0.1 | CN(C)C/C=C/C(=O)Nc1cccc(-c2c(N)ncnc2Oc2ccc(Oc3ccccc3)cc2)c1 [A248, (E)-N-(3-(4-amino-6-(4-phenoxyphenoxy)pyrimidin-5-yl)phenyl)-4-(dimethylamino)but-2-enamide] | 
12 | < 1 | C=CC(=O)N1CCC(CNc2ncnc(N)c2-c2ccc(OCc3ccccc3)cc2)CC1 [A292, 1-(4-(((6-amino-5-(4-(benzyloxy)phenyl)pyrimidin-4-yl)amino)methyl)piperidin-1-yl)prop-2-en-1-one] | 
13 | < 0.1 | C=CC(=O)N1C[C@H](F)C[C@@H](Nc2ncnc(N)c2-c2ccc(Oc3ccccc3)cc2)C1 [A205, 1-((3R,5R)-3-((6-amino-5-(4-phenoxyphenyl)pyrimidin-4-yl)amino)-5-fluoropiperidin-1-yl)prop-2-en-1-one] | 
14 | < 1 | C=CC(=O)Nc1cccc(Oc2ccnc(N)c2-c2ccc(OCc3ccccc3)cc2)c1 [A149, N-(3-((2-amino-3-(4-(benzyloxy)phenyl)pyridin-4-yl)oxy)phenyl)acrylamide] | 
15 | < 0.1 | C=CC(=O)Nc1cccc(Oc2ncnc(N)c2-c2cnn(Cc3ccccc3C#N)c2)c1 [A194, N-(3-((6-amino-5-(1-(2-cyanobenzyl)-1H-pyrazol-4-yl)pyrimidin-4-yl)oxy)phenyl)acrylamide] | 
16 | > 1 | C=CC(=O)N1CCC(Nc2ncnc(N)c2-c2ccc(Oc3ccccc3)cc2)CC1 [A299, 1-(4-((6-amino-5-(4-phenoxyphenyl)pyrimidin-4-yl)amino)piperidin-1-yl)prop-2-en-1-one] | 
17 | > 1 | Nc1ncnc(Oc2ccc(Oc3ccccc3)cc2)c1-c1cccc(NC(=O)/C=C/CN2CCCC(F)(F)C2)c1 [A301, (E)-N-(3-(4-amino-6-(4-phenoxyphenoxy)pyrimidin-5-yl)phenyl)-4-(3,3-difluoropiperidin-1-yl)but-2-enamide] | 
18 | < 0.1 | C#CC(=O)N1CC2(CC(Nc3ncnc(N)c3-c3cnn(Cc4ccccc4)c3)C2)C1 [A111, 1-(6-((6-amino-5-(1-benzyl-1H-pyrazol-4-yl)pyrimidin-4-yl)amino)-2-azaspiro[3.3]heptan-2-yl)prop-2-yn-1-one] | 
19 | < 0.1 | Nc1ncnc(Oc2cccc(NC(=O)CCl)c2)c1-c1ccc(OCc2ccccc2)cc1 [A347, N-{3-[6-Amino-5-(4-benzyloxy-phenyl)-pyrimidin-4-yloxy]-phenyl}-2-chloro-acetamide] | 

Row | IC50 (full-length human BTK) [µM] | SMILES | IC50 (PBMC) [µM]
20 | < 0.1 | CC=CC(=O)c1cccc(CNc2ncnc(N)c2-c2ccc(Oc3ccccc3)cc2)c1 [A142, 1-(3-((6-Amino-5-(4-phenoxyphenyl)-pyrimidin-4-ylamino)-methyl)-phenyl)-but-2-en-1-one] | 
21 | < 1 | C=CC(=O)N1CCC(CNc2ncnc(N)c2-c2ccc(Oc3ccccn3)cc2)CC1 [A335, 1-(4-(((6-amino-5-(4-(pyridin-2-yloxy)phenyl)pyrimidin-4-yl)amino)methyl)piperidin-1-yl)prop-2-en-1-one] | 
22 | < 0.1 | C=CC(=O)Nc1cncc(Nc2ncnc(N)c2-c2ccc(Oc3ccccc3)cc2)c1 [A186, N-(5-((6-amino-5-(4-phenoxyphenyl)pyrimidin-4-yl)amino)pyridin-3-yl)acrylamide] | 
23 | < 1 | C=CC(=O)N1CC[C@@H](COc2ncnc(N)c2-c2ccc(Oc3ccc(C#N)cc3)cc2)C1 [A201, (R)-4-(4-(4-((1-acryloylpyrrolidin-3-yl)methoxy)-6-aminopyrimidin-5-yl)phenoxy)benzonitrile] | 
24 | < 0.1 | C=CC(=O)Nc1ccc(F)c(Oc2ccnc(N)c2-c2ccc(Oc3ccccc3)cc2)c1 [A158, N-(3-((2-amino-3-(4-phenoxyphenyl)pyridin-4-yl)oxy)-4-fluorophenyl)acrylamide] | 
25 | < 0.1 | Nc1ncnc(Oc2cccc(NC(=O)CCl)c2)c1-c1ccc(OCc2ccccc2)c(F)c1 [A351, N-{3-[6-Amino-5-(4-benzyloxy-3-fluoro-phenyl)-pyrimidin-4-yloxy]-phenyl}-2-chloro-acetamide] | 
26 | < 1 | C=CC(=O)N1CCC2(CCN(c3ncnc(N)c3-c3ccc(Oc4ccccc4)cc3)C2)C1 (stereo not drawn) [A93, 1-(7-(6-amino-5-(4-phenoxyphenyl)pyrimidin-4-yl)-2,7-diazaspiro[4.4]nonan-2-yl)prop-2-en-1-one] | 
27 | < 0.1 | C=CC(=O)Nc1cccc(Oc2ncnc(N)c2-c2cnn(Cc3cccc(C)c3)c2)c1 [A190, N-(3-((6-amino-5-(1-(3-methylbenzyl)-1H-pyrazol-4-yl)pyrimidin-4-yl)oxy)phenyl)acrylamide] | 
28 | > 1 | CCC(=O)Nc1ccc(Oc2ncnc(N)c2-c2ccc(Oc3ccccc3)cc2)cc1 [A308, N-(4-((6-amino-5-(4-phenoxyphenyl)pyrimidin-4-yl)oxy)phenyl)propionamide] | 
29 | > 1 | Nc1ccc(Oc2ncnc(N)c2-c2ccc(Oc3ccccc3)cc2)cc1 [A303, 6-(4-aminophenoxy)-5-(4-phenoxyphenyl)pyrimidin-4-amine] | 
30 | < 1 | C=CC(=O)N1CCC(CNc2ncnc(N)c2-c2ccc(Oc3ccncc3)cc2)CC1 [A97, 1-(4-(((6-amino-5-(4-(pyridin-4-yloxy)phenyl)pyrimidin-4-yl)amino)methyl)piperidin-1-yl)prop-2-en-1-one] | 
31 | < 0.1 | C=CC(=O)N1CC2(CC(Oc3ncnc(N)c3-c3ccc(Oc4ccc(C#N)cc4)cc3)C2)C1 [A202, 4-(4-(4-((2-acryloyl-2-azaspiro[3.3]heptan-6-yl)oxy)-6-aminopyrimidin-5-yl)phenoxy)benzonitrile] | 
32 | < 1 | C=CC(=O)N[C@H]1C[C@H](O)C[C@@H](Nc2ncnc(N)c2-c2ccc(Oc3ccccc3)cc2)C1 (racemic) [A188, N-((1R,3S,5R)-3-((6-amino-5-(4-phenoxyphenyl)pyrimidin-4-yl)amino)-5-hydroxycyclohexyl)acrylamide] | 
33 | < 0.1 | Nc1ncnc(Oc2ccc(Oc3ccccc3)cc2)c1-c1cccc(NC(=O)/C=C/CN2CCOCC2)c1 [A274, (E)-N-(3-(4-amino-6-(4-phenoxyphenoxy)pyrimidin-5-yl)phenyl)-4-morpholinobut-2-enamide] | 
34 | < 1 | CN(C)C/C=C/C(=O)N1CC[C@H](CNc2ncnc(N)c2-c2ccc(Oc3ccccc3)cc2)C1 [A62, (R,E)-1-(3-(((6-amino-5-(4-phenoxyphenyl)pyrimidin-4-yl)amino)methyl)pyrrolidin-1-yl)-4-(dimethylamino)but-2-en-1-one] | 
35 | < 1 | C=CC(=O)Nc1cccc(Oc2ncnc(N)c2-c2cncc(OC)c2)c1 [A291, N-(3-((6-amino-5-(5-methoxypyridin-3-yl)pyrimidin-4-yl)oxy)phenyl)acrylamide] | 
36 | < 0.1 | C=CC(=O)N1CCC(CNc2ncnc(N)c2-c2ccc(Oc3cccc(C(F)(F)F)c3)cc2)CC1 [A95, 1-(4-(((6-amino-5-(4-(3-(trifluoromethyl)phenoxy)phenyl)pyrimidin-4-yl)amino)methyl)piperidin-1-yl)prop-2-en-1-one] | 
37 | < 0.1 | C=CC(=O)N1CCC(F)(CNc2ncnc(N)c2-c2ccc(Oc3ccccc3)cc2)CC1 [A225, 1-(4-(((6-amino-5-(4-phenoxyphenyl)pyrimidin-4-yl)amino)methyl)-4-fluoropiperidin-1-yl)prop-2-en-1-one] | 
38 | < 1 | C=CC(=O)Nc1cccc(Oc2ncnc(N)c2-c2ccc(OC(C)C)cc2)c1 [A289, N-(3-((6-amino-5-(4-isopropoxyphenyl)pyrimidin-4-yl)oxy)phenyl)acrylamide] | 

Row | SMILES | IC50 (full-length human BTK) [µM] | IC50 (PBMC) [µM]
39 | CCC(=O)N1CCC(CNc2ncnc(N)c2-c2ccc(Oc3ccccc3)cc2)CC1 [A333, 1-(4-(((6-amino-5-(4-phenoxyphenyl)pyrimidin-4-yl)amino)methyl)piperidin-1-yl)propan-1-one] | < 1 | 
